Measured values: PubChem BioAssay (NCI)
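GI50 is the concentration that inhibits growth by half. Definition used: TGI = concentration required for complete inhibition of growth.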

Experiments:
Test in all cases: DTP human tumour cell line panel, 384-well format
A549 NSCLC = system: A549 NSCLC
UACC-62 melanoma = system: UACC-62 melanoma
ACHN renal = system: ACHN renal
A498 renal = system: A498 renal
MCF7 breast = system: MCF7 breast
SR leukemia = system: SR leukemia
UO-31 renal = system: UO-31 renal
NCI-H522 lung = system: NCI-H522 lung
IGROV1 ovarian = system: IGROV1 ovarian
CCRF-CEM leukemia = system: CCRF-CEM leukemia
MOLT-4 leukemia = system: MOLT-4 leukemia
HL-60(TB) leukemia = system: HL-60(TB) leukemia
HOP-62 NSCLC = system: HOP-62 NSCLC

Structure (SMILES): Cn1cc(CNCC2CCN(c3ncc(C(=O)NO)cn3)CC2)c2ccccc21
- GI50 (A549 NSCLC): 11.9 nM
- TGI (A549 NSCLC): 32.1 nM
- GI50 (UACC-62 melanoma): < 10 nM
- TGI (UACC-62 melanoma): 14.9 nM
- GI50 (ACHN renal): 14.3 nM
- TGI (ACHN renal): 34.9 nM
- GI50 (A498 renal): 12.8 nM
- TGI (A498 renal): 29.3 nM
- GI50 (MCF7 breast): < 10 nM
- TGI (MCF7 breast): 20.9 nM
- GI50 (SR leukemia): < 10 nM
- TGI (SR leukemia): < 10 nM
- GI50 (UO-31 renal): 27.3 nM
- TGI (UO-31 renal): 123 nM
- GI50 (NCI-H522 lung): < 10 nM
- TGI (NCI-H522 lung): 20.8 nM
- GI50 (IGROV1 ovarian): 10.2 nM
- TGI (IGROV1 ovarian): 23.7 nM
- GI50 (CCRF-CEM leukemia): < 10 nM
- TGI (CCRF-CEM leukemia): < 10.8 nM
- GI50 (MOLT-4 leukemia): < 10 nM
- TGI (MOLT-4 leukemia): < 10 nM
- GI50 (HL-60(TB) leukemia): < 10 nM
- TGI (HL-60(TB) leukemia): < 10 nM
- GI50 (HOP-62 NSCLC): < 11.8 nM
- TGI (HOP-62 NSCLC): 62.1 nM
